Where two headings read alike, the source gives them in different places.

Assay [1] deals with young male CD1 mice. The note with it: mean±SEM, scored during 6 min.
Protocol: (A) In the forced swim test, young male CD1 mice, singly housed, were used. Mice were treated i.p. with saline (control) or 25 mg/kg compounds (I) or (II) for 7 days once-a-day and tested at 8th day. In the reference group, mice were treated i.p. with 10 mg/kg Imipramine 30 min prior the swimming test. Forced swim test was done in a glass cylinder 17 cm diameter, water height 13 cm (7 cm to the edge of a cylinder) filled with water at ambient temperature. Animals were scored during 6 min. The latency of the first floating episode was accepted as a measure of forced swim behavior. Statistical analysis was done using ANOVA and Mann-Whitney test as a post-hoc analysis.
Assay [2] deals with mice with seizures induced by pentylenetetrazol. The settings on record: i.p. 10 mg/kg for 7 days once-a-day, pentylenetetrazol administered. The protocol: Effect of the treatment of epilepsy with compounds of the invention was assessed in mice with seizures induced by pentylenetetrazol. Loscher et al., Epilepsy Res 1991, 8:171-189. Mice were treated for 7 days once-a-day with i.p. 10 mg/kg compound II or saline (control). Pentylenetetrazol was administered.

Assay [3] deals with young male CD1 mice. The note with it: mean±SEM, n=20.
Protocol: (B) In the chronic stress depression model, young male CD1 mice, singly housed, were used. […] Stress procedure was used for 10 days. In the reference group, mice received Imipramine orally 8 mg/kg per day for 7 days prior the stress and then in a course on entire 10-days-stress-procedure. Animals (n=20 per group) were tested on a sucrose preference at 10th day of the stress procedure. Statistical analysis was done using ANOVA and Mann-Whitney test as a post-hoc analysis. Data are presented in Table 2 as mean±SEM of a percentage of sucrose preference.
Another assay deals with Stressed mice. The note with it: mean±SEM; stressed mice from Example 2 (i.p. 25 mg/kg for 7 days prior stress); scored during 5 min. Here is the method:
(B) In the chronic stress depression model, young male CD1 mice, singly housed, were used. […] Stress procedure was used for 10 days.
Effect of the treatment of anxiety with compounds of the invention was assessed in rodents in light/dark transition test. Stressed mice from the Example 2 were tested in a dark/light box as described by Crawley et al., Pharmacol Biochem Behav 13, 167-70 (1980). Animals were scored during 5 min for (i) total time spent in light box and (ii) number of exits. […] Data are presented in Table 3 as mean±SEM of (i) total time spent in light box and (ii) number of exits.

The next assay deals with Rats. The note with it: rats pretreated i.p. 25 mg/kg for 7 days once-a-day; at day 8, 10 mg/kg caffeine. Here is the method:
Effect of the treatment of sleep disorder (insomnia) with compound II of the present invention was assessed in caffeine-induced model of insomnia. Rats were treated for 7 days once-a-day with i.p. 25 mg/kg compound II or saline (control).

Assay [4] deals with rats raised in social isolation (ISO). The settings on record: mean±SEM; socially isolated rats, i.p. 25 mg/kg for 7 days once-a-day; 80 dB prepulse, 110 dB pulse, prepulse latency 100 milliseconds. The protocol:
Rats were treated for 7 days once-a-day with i.p. 25 mg/kg compound II or saline (control).

The mark [5] stands for this setting: i.p. 25 mg/kg for 7 days once-a-day, tested at 8th day.

`C[N+](C)(C)CCO.O=C([O-])CCC(=O)O` [Compound (I), monocholine salt of succinic acid]: the “Latency of the first floating episode” value in the assay on young male CD1 mice [1] (setting [5]) is on record as 117 ± 18 s.
Consider `C[N+](C)(C)CCO.C[N+](C)(C)CCO.O=C([O-])CCC(=O)[O-]` [Compound (II), dicholine salt of succinic acid], for which the “seizures as compared to control” value in assay [2] is reported as “significantly decreases seizures”. This molecule also displayed a Sucrose preference in the assay with young male CD1 mice [3] (i.p. 25 mg/kg for 7 days once-a-day prior the onset of stress, tested at 10th day of stress) of 72 ± 3 %. Further, in the assay on Stressed mice, the Number of exits is listed as 4.8 ± 0.6 and the “Time (total time spent in light box)” value was 250 ± 11 s. Also, in the assay on Rats, the “sleep onset latency (SOL) after caffeine as compared to vehicle” value is given as “caffeine did not prolonged SOL”. The Prepulse inhibition in assay [4] came out at 51 ± 9 %. For the same molecule, the “Latency of the first floating episode” value in the assay with young male CD1 mice [1] (setting [5]) came to 140 ± 11 s.
For the molecule `CN(C)CCCN1c2ccccc2CCc2ccccc21` [Imipramine, reference compound], the Sucrose preference with young male CD1 mice [3] (reference group, orally 8 mg/kg per day for 7 days prior the stress and during 10-days stress, tested at 10th day) worked out at 75 ± 4 %. In addition, the “Latency of the first floating episode” value with young male CD1 mice [1] (reference group, i.p. 10 mg/kg 30 min prior the swimming test) is on record as 60 ± 26 s.

(Values after patent US8673977B2, “Choline salts of succinic acid for the treatment of depression, anxiety, schizophrenia, sleep disorder, and epilepsy” (priority 2008, dated 2014).)
